# Laboratory results: PMC10969742, “A Phase I Study of the Oral Dual-Acting Pan-PI3K/mTOR Inhibitor Bimiralisib in Patients with Advanced Solid Tumors” (Cancers, 2024)
# “Also recorded” adds a separate entry of the source. Where two headings read alike, the source gives them in different places.
# Key:
# [1] = system: patients with advanced solid tumors; format: in vivo
# Procedure: This was a Phase 1, open-label, multi-center, non-randomized, dose escalation study evaluating DLTs, tolerability, PK, and preliminary efficacy of bimiralisib in the treatment of patients with advanced solid tumors for which no standard curative or life-prolonging therapy is available. This study was conducted in the US (MD Anderson Cancer Center, Houston; Mayo Clinic Rochester; Roswell Park Comprehensive Cancer Center, Buffalo; University Hospitals of Cleveland), Spain (Vall Hebron University Hospital), Switzerland (Basel University Hospital), and UK (University College London Hospitals NHS Trust and Oxford Universities NHS Trust).
# (§1) The primary objective of the study was to determine the MTD of bimiralisib administered according to three different dosing schedules. Bimiralisib was formulated as 20 mg and 80 mg capsules for oral administration. The first dosing schedule to be evaluated was continuous (once daily) dosing over a 21-day cycle. […] Patients enrolled in the continuous schedule and intermittent schedule A received a single lead-in dose, administered on […] prior to the start of the first 21-day treatment cycle, to characterize single-dose pharmacokinetics. Based on the previous first-in-human trial with bimiralisib, together with the expected toxicity profile of PI3K/mTOR inhibitors, the starting dose (dose-level 1) of bimiralisib in Study PQR309-003 was set at 80 mg daily.
# (§2) Safety was monitored by physical examination, vital signs, weight, electrocardiogram, ECOG performance status, laboratory evaluations (including glucose monitoring), and patient self-reported mood questionnaires, as well as AEs. All AEs were coded with NCI Common Terminology Criteria for Adverse Events (CTCAE) v4.03 [27]. The MTD was defined as the maximum dose level at which ≤1/6 patients have DLTs. A DLT was defined by the occurrence of grade 3 or 4 AE that is possibly, probably, or definitely related to bimiralisib within the first 21 days of treatment. Bimiralisib treatment was interrupted if patients experienced any DLTs. If the patient derived benefit from the treatment as determined by the investigator, treatment could be resumed at a lower dose in agreement with the study sponsor.
# Patients were discontinued from trial if they had evidence of clinical, symptomatic, or radiographic disease progression or relapse, unacceptable drug related AEs, non-compliance to the protocol, voluntary withdrawal, or pregnancy. Treatment compliance was established with patient diaries and records of medication used and dosages administered.
# Descriptive statistics were used to present the data. Categorical data were summarized in contingency tables presenting frequencies and percentages. Continuous data were summarized using the number of non-missing values (n), mean, standard deviation (SD), median, Q1, Q3, minimum and maximum values, as appropriate. Data were analyzed using SAS. No tests of significance were planned to compare study treatment groups on baseline data. The efficacy and safety analysis set comprised all patients who receive ≥1 dose of bimiralisib.
# [2] = system: patients with advanced solid tumors; experiment: Phase 1 3 + 3 dose escalation: DLTs and MTD determination; format: in vivo
# Procedure: as §1
# Enrollment of cohorts into the dose escalation followed a typical 3 + 3 design, with escalation/de-escalation based on the dose-limiting toxicities observed as described in Table 1 and Table 2. Up to 5 dose levels were planned in the continuous schedule to a maximum of 180 mg daily. For the intermittent schedules, up to 7 dose levels were planned, to a maximum of 240 mg daily. One dose level for de-escalation was planned for all schedules. Patient cohorts, consisting initially of three patients, were enrolled depending on the safety and tolerability of the initial cohort. Patients were treated until disease progression, unacceptable toxicity, patient’s request for withdrawal, investigator judgment, or death, whichever came first.
# as §2
structure (smiles),measurement,setting,value
"Nc1cc(C(F)(F)F)c(-c2nc(N3CCOCC3)nc(N3CCOCC3)n2)cn1 [bimiralisib, 5-(4,6-Dimorpholino-1,3,5-triazin-2-yl)-4-(trifluoromethyl)pyridin-2-amine]",Any TEAE,[1]; Continuous (n = 21),21 (100) n (%)
same,Any drug-related AE,[1]; Continuous (n = 21),21 (100) n (%)
same,Any drug-related grade ≥ 3 AE,[1]; Continuous (n = 21),11 (52.4) n (%)
same,Any drug-related serious AE,[1]; Continuous (n = 21),2 (10) n (%)
same,Any grade ≥ 3 TEAE,[1]; Continuous (n = 21),17 (81) n (%)
same,Any serious AE,[1]; Continuous (n = 21),9 (43) n (%)
same,Common TEAE: ALT elevation,[1]; Continuous (n = 21),1 (4.76) n (%)
same,Common TEAE: Abdominal pain,[1]; Continuous (n = 21),1 (4.76) n (%)
same,Common TEAE: Anemia,[1]; Continuous (n = 21),0 (0) n (%)
same,Common TEAE: Anxiety,[1]; Continuous (n = 21),5 (23.8) n (%)
same,Common TEAE: Ascites,[1]; Continuous (n = 21),0 (0) n (%)
same,Common TEAE: Asthenia,[1]; Continuous (n = 21),6 (28.6) n (%)
same,Common TEAE: Back pain,[1]; Continuous (n = 21),4 (19.1) n (%)
same,Common TEAE: Cachexia,[1]; Continuous (n = 21),4 (19.1) n (%)
same,Common TEAE: Cough,[1]; Continuous (n = 21),2 (9.5) n (%)
same,Common TEAE: Decreased appetite,[1]; Continuous (n = 21),11 (52.4) n (%)
same,Common TEAE: Dehydration,[1]; Continuous (n = 21),6 (28.6) n (%)
same,Common TEAE: Depression,[1]; Continuous (n = 21),5 (23.8) n (%)
same,Common TEAE: Diarrhea,[1]; Continuous (n = 21),10 (47.6) n (%)
same,Common TEAE: Disturbance attention,[1]; Continuous (n = 21),11 (52.4) n (%)
same,Common TEAE: Dry Mouth,[1]; Continuous (n = 21),10 (47.6) n (%)
same,Common TEAE: Dry skin,[1]; Continuous (n = 21),7 (33.3) n (%)
same,Common TEAE: Dysgeusia,[1]; Continuous (n = 21),4 (19.1) n (%)
same,Common TEAE: Dyspepsia,[1]; Continuous (n = 21),1 (4.76) n (%)
same,Common TEAE: Dyspnea,[1]; Continuous (n = 21),4 (19.1) n (%)
same,Common TEAE: Fatigue,[1]; Continuous (n = 21),13 (61.9) n (%)
same,Common TEAE: Headache,[1]; Continuous (n = 21),0 (0) n (%)
same,Common TEAE: Hyperglycemia,[1]; Continuous (n = 21),16 (76.2) n (%)
same,Common TEAE: Hyperinsulinemia,[1]; Continuous (n = 21),7 (33.3) n (%)
same,Common TEAE: Hyperkalemia,[1]; Continuous (n = 21),0 (0) n (%)
same,Common TEAE: Hyperphosphatasemia,[1]; Continuous (n = 21),1 (4.76) n (%)
same,Common TEAE: Hypokalemia,[1]; Continuous (n = 21),6 (28.6) n (%)
same,Common TEAE: Irritability,[1]; Continuous (n = 21),0 (0) n (%)
same,Common TEAE: Malaise,[1]; Continuous (n = 21),4 (19.1) n (%)
same,Common TEAE: Mucosal Inflammation,[1]; Continuous (n = 21),0 (0) n (%)
same,Common TEAE: Neck pain,[1]; Continuous (n = 21),0 (0) n (%)
same,Common TEAE: Pruritus,[1]; Continuous (n = 21),6 (28.6) n (%)
same,Common TEAE: Rash,[1]; Continuous (n = 21),4 (19.1) n (%)
same,Common TEAE: Tachycardia,[1]; Continuous (n = 21),4 (19.1) n (%)
same,Common TEAE: Upper respiratory tract infection,[1]; Continuous (n = 21),1 (4.76) n (%)
same,Common TEAE: Vomiting,[1]; Continuous (n = 21),10 (47.6) n (%)
same,Common TEAE: Weight decrease,[1]; Continuous (n = 21),11 (52.4) n (%)
same,Grade ≥ 3 TEAE: ALT elevation,[1]; Continuous (n = 21),1 (4.8) n (%)
same,Grade ≥ 3 TEAE: Dehydration,[1]; Continuous (n = 21),4 (19) n (%)
same,Grade ≥ 3 TEAE: Fatigue,[1]; Continuous (n = 21),7 (33.3) n (%)
same,Grade ≥ 3 TEAE: Hyperglycemia,[1]; Continuous (n = 21),6 (28.6) n (%)
same,Patients discontinuing study due to AE,[1]; Continuous (n = 21),5 (24.0%) n (%)
same,Study discontinuation due to AE: Dehydration,[1]; Continuous (n = 21),2 (9.5%) n (%)
same,Study discontinuation due to AE: Ejection Fraction decreased,[1]; Continuous (n = 21),1 (4.8%) n (%)
same,Study discontinuation due to AE: Fatigue,[1]; Continuous (n = 21),3 (14.3%) n (%)
same,Study discontinuation due to AE: Tumor pain,[1]; Continuous (n = 21),1 (4.8%) n (%)
same,Treatment-related death,[1]; Continuous (n = 21),0 (0) n (%)
same,Common TEAE: Upper respiratory tract infection,"[1]; Intermittent A, n = 25",3 (12) n (%)
same,Study discontinuation due to AE: Urinary Tract Infection,"[1]; Intermittent A, n = 25",1 (4.0%) n (%)
same,Treatment-related death,"[1]; Intermittent A, n = 25",0 (0) n (%)
same,Common TEAE: Upper respiratory tract infection,"[1]; Intermittent B, n = 24",1 (4.2) n (%)
same,Treatment-related death,"[1]; Intermittent B, n = 24",0 (0) n (%)
same,Common TEAE: Upper respiratory tract infection,[1]; Total n = 70,5 (7.1) n (%)
same,Study discontinuation due to AE: Urinary Tract Infection,[1]; Total n = 70,1 (1.4%) n (%)
same,Treatment-related death,[1]; Total n = 70,0 (0) n (%)
same,Patients who died during the study,"[1]; all patients, 19 patients",27.1%
same,"Grade > 3 TEAE fatigue, frequency",[1]; continuous dosing,33.3%
same,"Grade > 3 TEAE hyperglycemia, frequency",[1]; continuous dosing,28.6%
same,Patients experiencing Grade > 3 TEAEs,[1]; continuous dosing,81%
same,Patients who discontinued due to treatment-related fatigue,[1]; continuous dosing,2 patients
same,Patients who discontinued the study due to AEs,[1]; continuous dosing,5 patients
same,"Treatment-emergent AE hyperglycemia, frequency",[1]; continuous schedule,76.2%
same,Dose reduction due to TEAEs,"[1]; continuous schedule, n = 2",10%
same,Dose interruption due to TEAEs,"[1]; continuous schedule, n = 11",52%
same,Discontinued study treatment: AEs,"[1]; human, in vivo",12.9%
same,"Grade > 3 TEAE hyperglycemia, frequency","[1]; human, in vivo",12.5%
same,Patients experiencing one or more TEAEs,"[1]; human, in vivo",99%
same,Patients reporting one or more serious adverse events (SAEs),"[1]; human, in vivo",40%
same,Patients who discontinued due to treatment-related fatigue,"[1]; human, in vivo",1 patients
same,Patients who discontinued the study due to AEs,"[1]; human, in vivo",3 patients
same,Patients with TEAEs related to the study drug,"[1]; human, in vivo",91%
same,SAEs considered related to study drug,"[1]; human, in vivo",6%
same,Study discontinuation due to AE: Dehydration,"[1]; human, in vivo",2 (2.8%) n (%)
same,Study discontinuation due to AE: Ejection Fraction decreased,"[1]; human, in vivo",1 (1.4%) n (%)
same,Study discontinuation due to AE: Tumor pain,"[1]; human, in vivo",1 (1.4%) n (%)
same,"Treatment-emergent AE nausea, frequency","[1]; human, in vivo",56–62.5%
same,Patients who discontinued due to AEs considered to be treatment-related,[1]; in vivo,five
same,"SAEs considered related to study drug, number",[1]; in vivo,two
same,"Grade > 3 TEAE fatigue, frequency",[1]; intermittent schedule A,0%
same,"Grade > 3 TEAE hyperglycemia, frequency",[1]; intermittent schedule A,12%
same,Patients experiencing Grade > 3 TEAEs,[1]; intermittent schedule A,56%
same,Patients who discontinued the study due to AEs,[1]; intermittent schedule A,1 patients
same,"SAEs considered related to study drug, number",[1]; intermittent schedule A,zero
same,Dose reduction due to TEAEs,"[1]; intermittent schedule A, n = 0",0%
same,Dose interruption due to TEAEs,"[1]; intermittent schedule A, n = 9",36%
same,"Grade > 3 TEAE fatigue, frequency",[1]; intermittent schedule B,8.3%
same,"SAEs considered related to study drug, number",[1]; intermittent schedule B (diarrhea and hyperglycemia),two
same,Dose reduction due to TEAEs,"[1]; intermittent schedule B, n = 1",4%
same,Dose interruption due to TEAEs,"[1]; intermittent schedule B, n = 9",38%
same,Deaths due to disease progression,[1]; of 19 deaths during the study,16 patients
same,"Deaths due to other reasons unrelated to bimiralisib (vessel rupture, sepsis, new small cell carcinoma)",[1]; of 19 deaths during the study,3 patients
same,Maximum tolerated dose (MTD),[2]; continuous schedule (once daily),80 mg
same,"Dose-limiting toxicity (DLT), kind",[2]; in vivo,grade three fatigue
same,Patients with dose interruptions or discontinuation due to treatment-related AEs during first 21-day dosing cycle,[2]; in vivo,Four of these five
same,Maximum tolerated dose (MTD),"[2]; intermittent schedules A and B, up to 200 mg",No MTD was reached; also recorded: neither intermittent schedule reached MTD
